Assay results as given in patent US9717243B2, “Piperidinecarboxylic acid derivatives as fungicides” (priority 2013, dated 2017).

assay: LogP by HPLC on reversed phase columns (EEC directive 79/831 Annex V.A8); type: physicochemical; details: not given
Method: Calibration was done with straight-chain alkan2-ones (with 3 to 16 carbon atoms) with known LogP values (measurement of LogP values using retention times with linear interpolation between successive alkanones). Lambda-max-values were determined using UV-spectra from 200 nm to 400 nm and the peak values of the chromatographic signals.

SMILES	Log P[a]
C#CCOc1ccccc1C1CC(c2csc(C3(C(=O)OC4CCOC4)CCN(C(=O)Cn4nc(C(F)F)cc4C(F)F)CC3)n2)=NO1 (stereo not shown) [Example I-58]	3.55
COC(=O)C1(c2nc(C3=NOC(c4c(F)cccc4F)C3)cs2)CCN(C(=O)Cn2nc(C(F)(F)F)cc2C)CC1 (stereo not shown) [Example I-69]	3.55
CC(C)=CCN(C)C(=O)C1(C#N)CCN(C(=O)Nc2ccccc2)CC1 [IV-41]	2.61
COCCOC(=O)C1(c2nc(C3=NOC(c4c(Cl)cccc4OS(C)(=O)=O)C3)cs2)CCN(C(=O)Cn2nc(C(F)F)cc2C(F)F)CC1 (stereo not shown) [Example I-77]	3.48
CC(C)(C)OC(=O)C1(C#N)CCN(C(=O)Nc2cccc(C#N)c2)CC1 [IV-29]	2.88
CCC(C)NC(=O)C1(C#N)CCN(C(=O)Nc2cccc(C#N)c2)CC1 (stereo not shown) [IV-36]	1.28
CCOC(=O)C1(c2nc(C3=NOC(c4ccccc4)C3)cs2)CCN(C(=O)Cn2nc(C(F)F)cc2C(F)F)CC1 (stereo not shown) [Example I-25]	3.76
CCC(C)NC(=O)C1(C#N)CCN(C(=O)Nc2ccccc2)CC1 (stereo not shown) [IV-45]	2.13
CCOC(=O)C1(C#N)CCN(C(=O)Cn2nc(C(F)F)cc2C(F)F)CC1 [IV-11]	2.55
C#CCOc1ccccc1C1CC(c2csc(C3(C(=O)OC)CCN(C(=O)Cn4nc(C(F)F)cc4C(F)F)CC3)n2)=NO1 (stereo not shown) [Example I-4]	3.61
C#CCOc1ccccc1C1CC(c2csc(C3(C(=O)OCCSC)CCN(C(=O)Cn4nc(C(F)F)cc4C(F)F)CC3)n2)=NO1 (stereo not shown) [Example I-51]	4.01
COC(=O)C1(c2nc(C3=NOC(c4c(F)cccc4F)C3)cs2)CCN(C(=O)Cn2nc(C(F)F)cc2C(F)F)CC1 (stereo not shown) [Example I-1]	3.44
C=CCOC(=O)C1(C#N)CCN(C(=O)Cn2nc(C(F)F)cc2C(F)F)CC1 [IV-5]	2.71
COC(=O)C1(c2nc(C3=NOC(c4ccccc4OS(C)(=O)=O)C3)cs2)CCN(C(=O)Nc2cc(C(F)F)nn2C)CC1 (stereo not shown) [Example I-8]	2.64
CCC(C)NC(=O)C1(C#N)CCN(C(=S)Nc2cccc(Cl)c2)CC1 (stereo not shown) [IV-35]	2.69
COC(=O)C1(c2nc(C3=NOC(c4ccccc4)C3)cs2)CCN(C(=O)Cn2nc(C(F)F)cc2C(F)F)CC1 (stereo not shown) [Example I-5]	3.48
N#CC1(C(=O)OCc2ccccc2)CCN(C(=O)Cn2nc(C(F)F)cc2C(F)F)CC1 [IV-6]	3.23
C#CCOc1ccccc1C1CC(c2csc(C3(C(=O)OC)CCN(C(=O)Nc4cn(C)nc4C(F)F)CC3)n2)=NO1 (stereo not shown) [Example I-20]	2.88
CC(C)OC(=O)C1(c2nc(C3=NOC(c4c(Cl)cccc4OS(C)(=O)=O)C3)cs2)CCN(C(=O)Cn2nc(C(F)F)cc2C(F)F)CC1 (stereo not shown) [Example I-29]	3.96
C#CCOc1ccccc1C1CC(c2csc(C3(C(=O)OCC=C)CCN(C(=O)Cn4nc(C(F)F)cc4C(F)F)CC3)n2)=NO1 (stereo not shown) [Example I-45]	3.96
COC(=O)C1(C#N)CCN(C(=O)Cn2nc(C(F)F)cc2C)CC1 [IV-9]	1.89
CCOC(=O)C1(C(N)=S)CCN(C(=O)Cn2nc(C(F)F)cc2C(F)F)CC1 [II-10]	2.26
CC(C)=CCNC(=O)C1(C#N)CCN(C(=O)Nc2ccc(Cl)cc2)CC1 [IV-43]	2.68
CC(C)(C)OC(=O)C1(C#N)CCN(C(=S)Nc2cccc(Cl)c2)CC1 [IV-26]	3.72
C#CCOC(=O)C1(c2nc(C3=NOC(c4c(Cl)cccc4OS(C)(=O)=O)C3)cs2)CCN(C(=O)Cn2nc(C(F)F)cc2C(F)F)CC1 (stereo not shown) [Example I-78]	3.58
CC(C)OC(=O)C1(C#N)CCN(C(=O)Cn2nc(C(F)F)cc2C(F)F)CC1 [IV-10]	2.84
COC(=O)C1(C(N)=S)CCN(C(=O)Nc2cn(C(F)F)nc2C)CC1 [II-14]	1.30
COC(=O)C1(c2nc(C3=NOC(c4ccccc4)C3)cs2)CCN(C(=O)Cn2nc(C(F)F)cc2C)CC1 (stereo not shown) [Example I-63]	3.17

SMILES	Log P[a]
CC(C)(C)OC(=O)C1(C#N)CCN(C(=O)Nc2ccc(F)cc2)CC1 [IV-22]	2.96
COC(=O)C1(c2nc(C3=NOC(c4c(Cl)cccc4OS(C)(=O)=O)C3)cs2)CCN(C(=O)Cn2nc(C)cc2C(F)F)CC1 (stereo not shown) [Example I-74]	3.15
COC(=O)C1(C#N)CCN(C(=O)Nc2cn(C)nc2C(F)F)CC1 [IV-34]	1.40
CSCCOC(=O)C1(C(N)=S)CCN(C(=O)Cn2nc(C(F)F)cc2C(F)F)CC1 [II-2]	2.49
COC(=O)C1(c2nc(C3=NOC(c4c(Cl)cccc4OS(C)(=O)=O)C3)cs2)CCN(C(=O)Nc2cn(C(F)F)nc2C)CC1 (stereo not shown) [Example I-13]	2.86
C#CCOc1ccccc1C1CC(c2csc(C3(C(=O)OC)CCN(C(=O)Nc4cc(C(F)F)nn4C)CC3)n2)=NO1 (stereo not shown) [Example I-15]	3.00
COC(=O)C1(C(N)=S)CCN(C(=O)Nc2cc(C(F)F)ccc2C(F)F)CC1 [II-13]	2.23
COC(=O)C1(C(N)=S)CCN(C(=O)Cn2nc(C(F)F)cc2C)CC1 [II-7]	1.68
CS(=O)(=O)Oc1cccc(Cl)c1C1CC(c2csc(C3(C(=O)OCc4ccccc4)CCN(C(=O)Cn4nc(C(F)F)cc4C(F)F)CC3)n2)=NO1 (stereo not shown) [Example I-35]	4.19
CC(C)(C)OC(=O)C1(C#N)CCN(C(=S)Nc2ccccc2C(F)(F)F)CC1 [IV-25]	3.50
COC(=O)C1(c2nc(C3=NOC(c4c(F)cccc4F)C3)cs2)CCN(C(=O)Cn2nc(C(F)F)cc2C)CC1 (stereo not shown) [Example I-62]	3.17
C=CCOC(=O)C1(c2nc(C3=NOC(c4c(Cl)cccc4OS(C)(=O)=O)C3)cs2)CCN(C(=O)Cn2nc(C(F)F)cc2C(F)F)CC1 (stereo not shown) [Example I-41]	3.80
COC(=O)C1(C#N)CCN(C(=O)Nc2cc(C)ccc2C)CC1 [IV-19]	2.26
C#CCOc1ccccc1C1CC(c2csc(C3(C(=O)OCC)CCN(C(=O)Cn4nc(C(F)F)cc4C(F)F)CC3)n2)=NO1 (stereo not shown) [Example I-27]	3.87
COC(=O)C1(C#N)CCN(C(=O)Nc2cc(C(F)F)ccc2C(F)F)CC1 [IV-16]	2.47
C#CCOC(=O)C1(C(N)=S)CCN(C(=O)Cn2nc(C(F)F)cc2C(F)F)CC1 [II-17]	2.27
C#CCOc1ccc(F)c(F)c1C1CC(c2csc(C3(C(=O)OC)CCN(C(=O)Nc4cc(C(F)F)nn4C)CC3)n2)=NO1 (stereo not shown) [Example I-16]	3.00
NC(=S)C1(C(=O)OC2CCOC2)CCN(C(=O)Cn2nc(C(F)F)cc2C(F)F)CC1 (stereo not shown) [II-1]	2.02
C#CCOc1ccc(F)c(F)c1C1CC(c2csc(C3(C(=O)OC)CCN(C(=O)Cn4nc(C)cc4C(F)F)CC3)n2)=NO1 (stereo not shown) [Example I-76]	3.09
CCOC(=O)C1(c2nc(C3=NOC(c4c(Cl)cccc4OS(C)(=O)=O)C3)cs2)CCN(C(=O)Cn2nc(C(F)F)cc2C(F)F)CC1 (stereo not shown) [Example I-22]	3.71
CC(C)=CCNC(=O)C1(C#N)CCN(C(=O)Nc2ccc(F)cc2)CC1 [IV-44]	2.16
COC(=O)C1(c2nc(C3=NOC(c4ccccc4OS(C)(=O)=O)C3)cs2)CCN(C(=O)Nc2cc(C(F)(F)F)nn2C)CC1 (stereo not shown) [Example I-79]	3.00
CSCCOC(=O)C1(C#N)CCN(C(=O)Cn2nc(C(F)F)cc2C(F)F)CC1 [IV-3]	2.78
CC(C)OC(=O)C1(C(N)=S)CCN(C(=O)Cn2nc(C(F)F)cc2C(F)F)CC1 [II-9]	2.52
COC(=O)C1(c2nc(C3=NOC(c4ccccc4OS(C)(=O)=O)C3)cs2)CCN(C(=O)Cn2nc(C(F)(F)F)cc2C)CC1 (stereo not shown) [Example I-71]	3.33
CC(C)(C)OC(=O)C1(C#N)CCN(C(=S)Nc2ccc(OC(F)(F)F)cc2)CC1 [IV-27]	4.01
CC(C)(C)OC(=O)C1(C#N)CCN(C(=O)Nc2ccc(Cl)c(C(F)(F)F)c2)CC1 [IV-28]	4.06

same assay, conditions: Table 1, compounds of formula (I); LC-UV, acidic range, 0.1% formic acid in water and acetonitrile as eluent

SMILES	Log P[a]
O=C(Cn1nc(C(F)F)cc1C(F)F)N1CCC(C(=O)OC2CCOC2)(c2nc(C3=NOC(c4ccccc4-c4ccccc4)C3)cs2)CC1 (stereo not shown) [Example I-54]	4.31
COC(=O)C1(c2nc(C3=NOC(c4ccccc4-c4ccccc4)C3)cs2)CCN(C(=O)Cn2nc(C(F)F)cc2C(F)F)CC1 (stereo not shown) [Example I-2]	4.36
C=CCOC(=O)C1(c2nc(C3=NOC(c4ccccc4-c4ccccc4)C3)cs2)CCN(C(=O)Cn2nc(C(F)F)cc2C(F)F)CC1 (stereo not shown) [Example I-42]	4.72
CCOC(=O)C1(c2nc(C3=NOC(c4ccccc4-c4ccccc4)C3)cs2)CCN(C(=O)Cn2nc(C(F)F)cc2C(F)F)CC1 (stereo not shown) [Example I-23]	4.64

same assay, conditions: Table 2, compounds of formula (IV); LC-UV, acidic range, 0.1% formic acid in water and acetonitrile as eluent; read-out: Log P[a]

SMILES	chromatographic logP
COC(=O)C1(C#N)CCN(C(=O)Cn2nc(C(F)F)cc2C(F)F)CC1 [IV-13, methyl 1-{[3,5-bis(difluoromethyl)-1H-pyrazol-1-yl]acetyl}-4-cyanopiperidine-4-carboxylate]	2.26
COC(=O)C1(C#N)CCN(C(=O)Nc2cc(C(F)F)nn2C)CC1 [IV-17, methyl 4-cyano-1-{[3-(difluoromethyl)-1-methyl-1H-pyrazol-5-yl]carbamoyl}piperidine-4-carboxylate]	1.53

same assay, conditions: pH 2.7; synthesis intermediates in preparation examples; read-out: LogP (pH 2.7)

SMILES	chromatographic logP
CS(=O)(=O)Oc1cccc(Cl)c1C1CC(C(=O)CBr)=NO1 (stereo not shown) [2-[3-(bromoacetyl)-4,5-dihydro-1,2-oxazol-5-yl]-3-chlorophenyl methanesulfonate]	2.93
CS(=O)(=O)Oc1ccccc1C1CC(C(=O)CCl)=NO1 (stereo not shown) [2-[3-(chloroacetyl)-4,5-dihydro-1,2-oxazol-5-yl]phenyl methanesulfonate]	2.54
CC(=O)C1=NOC(c2c(Cl)cccc2OS(C)(=O)=O)C1 (stereo not shown) [2-(3-acetyl-4,5-dihydro-1,2-oxazol-5-yl)-3-chlorophenyl methanesulfonate]	2.46
